# Reference: US20250100998A1, “PARP7 INHIBITORS” (Gilead Sciences, Inc., priority 2023, published 2025)
# pEC50: −log10 of the molar value.
# Test system: STAT1 (phosphorylated at Tyr701) in NCI-H1373 cells
# Assay: Phospho-STAT1 (Tyr701) LANCE Ultra TR-FRET detection assay
# Format: cell-based
# Settings: Homo sapiens, NCI-H1373, 48 h, induction of pSTAT1 in NCI-H1373 cells, 48 hours incubation; normalized to 10 uM positive control and DMSO; 4-parameter fit; read-out: NH1373 pSTAT1 EC50
# Description: Phospho-STAT1 (Tyr701 LANCE Ultra TR-FRET Detection Assay
# LANCE Ultra phospho-STAT1 (Tyr701) kits are designed for the detection of phosphorylated STAT1 in cell lysates using a simple, homogeneous LANCE Ultra sandwich assay (Cat. #TRF4028M). This assay is intended for assessing compound induction of endogenous levels of cellular STAT1 (phosphorylated at Tyr701) in NCI-H1373 cells. The NCI-H1373 cells are cultured in RPMI 1640 media containing 10% heat inactivated FBS, GlutaMAX, 1% Penicillin-Streptomycin. An Echo acoustic liquid handler is used to transfer 60 nanoliters of compound dilutions using the Echo Qualified, 384-well polypropylene microplate clear flat bottom source plates into a Greiner (#781080) cell culture microplate. NCI-H1373 cells are seeded into these compound-spotted culture plates at 30,000 cells/well in a 60 uL volume in growth media. The plates are incubated in a 5% CO2 humidified incubator at 37° C. for 48 hours. […] Briefly, […] of supplemented lysis buffer is added to each well and allowed to shake for 1 hour at 400 rpm. Next, 5 ul of remixed antibody solutions (vol/vol) prepared in detection buffer are added to each well and allowed to incubate at room temperature overnight. After spinning the plate down at 300 rpm for 1 min, the plate is read on an EnVision plate reader set up for Eu3+ Cryptate and fluorescence emission is measured at two different wavelengths (665 nm and 620 nm). The HTRF ratio is then calculated ([…]) for each well to determine the amount of pSTAT1 in the cell lysate, and the data is then normalized to 10 uM (S)-5-((1-(3-oxo-3-(4-(5-(trifluoromethyl)pyrimidin-2-yl)piperazin-1-yl)propoxy)propan-2-yl)amino)-4-(trifluoromethyl)pyridazin-3(2H)-one positive and DMSO negative controls. The values were then plotted as a function of compound concentration and a 4-parameter fit was applied to derive the EC50 values.
row,Structure (SMILES),pEC50
1,"CC(C)(O)c1cnc(-c2cc3c(cc2F)C(=O)N(C[C@@H]2CCC[C@H](Nc4cn[nH]c(=O)c4C(F)(F)F)C2)CC3)nc1 [Example 73, 7-fluoro-6-(5-(2-hydroxypropan-2-yl)pyrimidin-2-yl)-2-(((1R,3S)-3-((6-oxo-5-(trifluoromethyl)-1,6-dihydropyridazin-4-yl)amino)cyclohexyl)methyl)-3,4-dihydroisoquinolin-1(2H)-one]",8.11
2,"O=c1[nH]ncc(O[C@H]2CCC[C@@H](Cn3cc(F)c4cc(-c5ncc(C(F)F)cn5)c(F)c(F)c4c3=O)C2)c1C(F)(F)F [Example 52, 6-(5-(difluoromethyl)pyrimidin-2-yl)-4,7,8-trifluoro-2-(((1R,3S)-3-((6-oxo-5-(trifluoromethyl)-1,6-dihydropyridazin-4-yl)oxy)cyclohexyl)methyl)isoquinolin-1(2H)-one]",8.91
3,"CC(O)(c1cnc(-c2cc3ccn(C[C@@H]4CCC[C@H](Nc5cn[nH]c(=O)c5C(F)(F)F)C4)c(=O)c3cc2F)nc1)C(F)F (stereo partly drawn) [Example 27, 6-(5-(1,1-difluoro-2-hydroxypropan-2-yl)pyrimidin-2-yl)-7-fluoro-2-(((1R,3S)-3-((6-oxo-5-(trifluoromethyl)-1,6-dihydropyridazin-4-yl)amino)cyclohexyl)methyl)isoquinolin-1(2H)-one]",7.78
4,"COc1cnc(-c2cc3c(F)cn(C[C@@H]4CCC[C@H](Nc5cn[nH]c(=O)c5C(F)(F)F)C4)c(=O)c3c(F)c2F)nc1 [Example 35, 4,7,8-trifluoro-6-(5-methoxypyrimidin-2-yl)-2-(((1R,3S)-3-((6-oxo-5-(trifluoromethyl)-1,6-dihydropyridazin-4-yl)amino)cyclohexyl)methyl)isoquinolin-1(2H)-one]",8.84
5,"O=c1[nH]ncc(N[C@H]2CCC[C@@H](Cn3ccc4cc(-c5ncc(OC(F)F)cn5)c(F)c(F)c4c3=O)C2)c1C(F)(F)F [Example 21, 6-(5-(difluoromethoxy)pyrimidin-2-yl)-7,8-difluoro-2-(((1R,3S)-3-((6-oxo-5-(trifluoromethyl)-1,6-dihydropyridazin-4-yl)amino)cyclohexyl)methyl)isoquinolin-1(2H)-one]",8.82
6,"Cc1nc(-c2cc3ccn(C[C@@H]4CCC[C@H](Nc5cn[nH]c(=O)c5C(F)(F)F)C4)c(=O)c3cc2F)ncc1Cl [Example 7, 6-(5-chloro-4-methylpyrimidin-2-yl)-7-fluoro-2-(((1R,3S)-3-((6-oxo-5-(trifluoromethyl)-1,6-dihydropyridazin-4-yl)amino)cyclohexyl)methyl)isoquinolin-1(2H)-one]",8.22
7,"CS(=O)(=O)c1ccc(-c2cc3ccn(C[C@@H]4CCC[C@H](Nc5cn[nH]c(=O)c5C(F)(F)F)C4)c(=O)c3cc2F)nc1 [Example 11, 7-fluoro-6-(5-(methylsulfonyl)pyridin-2-yl)-2-(((1R,3S)-3-((6-oxo-5-(trifluoromethyl)-1,6-dihydropyridazin-4-yl)amino)cyclohexyl)methyl)isoquinolin-1(2H)-one]",7.87
8,"O=c1[nH]ncc(N[C@H]2CCC[C@@H](Cn3ccc4cc(-c5ncc(OCCO)cn5)c(F)c(F)c4c3=O)C2)c1C(F)(F)F [Example 47, 7,8-difluoro-6-(5-(2-hydroxyethoxy)pyrimidin-2-yl)-2-(((1R,3S)-3-((6-oxo-5-(trifluoromethyl)-1,6-dihydropyridazin-4-yl)amino)cyclohexyl)methyl)isoquinolin-1(2H)-one]",8.31
9,"O=c1[nH]ncc(N[C@H]2C[C@@H](O)C[C@@H](Cn3ccc4cc(-c5ncc(C(F)(F)F)cn5)c(F)cc4c3=O)C2)c1C(F)(F)F [Example 62, 7-fluoro-2-[[(1S,3S,5R)-3-hydroxy-5-[[6-oxo-5-(trifluoromethyl)-1H-pyridazin-4-yl]amino]cyclohexyl]methyl]-6-[5-(trifluoromethyl)pyrimidin-2-yl]isoquinolin-1-one]",7.05
10,"O=c1[nH]ncc(N[C@H]2CCC[C@@H](Cn3cc(F)c4cc(-c5nc6ccccn6n5)c(F)cc4c3=O)C2)c1C(F)(F)F [Example 32, 6-([1,2,4]triazolo[1,5-a]pyridin-2-yl)-4,7-difluoro-2-(((1R,3S)-3-((6-oxo-5-(trifluoromethyl)-1,6-dihydropyridazin-4-yl)amino)cyclohexyl)methyl)isoquinolin-1(2H)-one]",8.82
11,"O=c1[nH]ncc(O[C@H]2CCC[C@@H](Cn3cc(F)c4cc(-c5ncc(OC(F)F)cn5)c(F)c(F)c4c3=O)C2)c1C(F)(F)F [Example 50, 6-(5-(difluoromethoxy)pyrimidin-2-yl)-4,7,8-trifluoro-2-(((1R,3S)-3-((6-oxo-5-(trifluoromethyl)-1,6-dihydropyridazin-4-yl)oxy)cyclohexyl)methyl)isoquinolin-1(2H)-one]",8.89
12,"CC(O)(c1cnc(-c2cc3ccn(C[C@@H]4CCC[C@H](Nc5cn[nH]c(=O)c5C(F)(F)F)C4)c(=O)c3c(F)c2F)nc1)C(F)F (stereo partly drawn) [Example 28, 6-(5-(1,1-difluoro-2-hydroxypropan-2-yl)pyrimidin-2-yl)-7,8-difluoro-2-(((1R,3S)-3-((6-oxo-5-(trifluoromethyl)-1,6-dihydropyridazin-4-yl)amino)cyclohexyl)methyl)isoquinolin-1(2H)-one]",8.23
13,"O=c1[nH]ncc(N[C@@H]2C[C@H](Cn3ccc4cc(-c5ncc(C(F)(F)F)cn5)c(F)cc4c3=O)CC[C@@H]2O)c1C(F)(F)F (racemic) [Example 68, 7-fluoro-2-(((rac-1R,3R,4S)-4-hydroxy-3-((6-oxo-5-(trifluoromethyl)-1,6-dihydropyridazin-4-yl)amino)cyclohexyl)methyl)-6-(5-(trifluoromethyl)pyrimidin-2-yl)isoquinolin-1(2H)-one]",7.19
14,"COc1cnc(-c2cc3c(Cl)cn(C[C@@H]4CCC[C@H](Nc5cn[nH]c(=O)c5C(F)(F)F)C4)c(=O)c3cc2F)nc1 [Example 58, 4-chloro-7-fluoro-6-(5-methoxypyrimidin-2-yl)-2-[[(1R,3S)-3-[[6-oxo-5-(trifluoromethyl)-1H-pyridazin-4-yl]amino]cyclohexyl]methyl]isoquinolin-1-one]",8.23
15,"O=c1[nH]ncc(N[C@H]2CCC[C@@H](Cn3ccc4cc(-c5ncc(F)cn5)c(F)cc4c3=O)C2)c1C(F)(F)F [Example 12, 7-fluoro-6-(5-fluoropyrimidin-2-yl)-2-(((1R,3S)-3-((6-oxo-5-(trifluoromethyl)-1,6-dihydropyridazin-4-yl)amino)cyclohexyl)methyl)isoquinolin-1(2H)-one]",7.64
16,"CC(C)(O)COc1cnc(-c2cc3ccn(C[C@@H]4CCC[C@H](Nc5cn[nH]c(=O)c5C(F)(F)F)C4)c(=O)c3c(F)c2F)nc1 [Example 16, 7,8-difluoro-6-(5-(2-hydroxy-2-methylpropoxy)pyrimidin-2-yl)-2-(((1R,3S)-3-((6-oxo-5-(trifluoromethyl)-1,6-dihydropyridazin-4-yl)amino)cyclohexyl)methyl)isoquinolin-1(2H)-one]",7.51
17,"CC(O)c1cnc(-c2cc3ccn(C[C@@H]4CCC[C@H](Nc5cn[nH]c(=O)c5C(F)(F)F)C4)c(=O)c3cc2F)nc1 (stereo partly drawn) [Example 10, 7-fluoro-6-(5-(1-hydroxyethyl)pyrimidin-2-yl)-2-(((1R,3S)-3-((6-oxo-5-(trifluoromethyl)-1,6-dihydropyridazin-4-yl)amino)cyclohexyl)methyl)isoquinolin-1(2H)-one]",8.16
18,"O=C1c2cc(F)c(-c3ncc(C(F)(F)F)cn3)cc2CN1C[C@@H]1CCC[C@H](Nc2cn[nH]c(=O)c2C(F)(F)F)C1 [Example 74, 6-fluoro-2-(((1R,3S)-3-((6-oxo-5-(trifluoromethyl)-1,6-dihydropyridazin-4-yl)amino)cyclohexyl)methyl)-5-(5-(trifluoromethyl)pyrimidin-2-yl)isoindolin-1-one]",8.04
19,"CS(=O)(=O)c1cnc(-c2cc3ccn(C[C@@H]4CCC[C@H](Nc5cn[nH]c(=O)c5C(F)(F)F)C4)c(=O)c3cc2F)nc1 [Example 13, 7-fluoro-6-(5-(methylsulfonyl)pyrimidin-2-yl)-2-(((1R,3S)-3-((6-oxo-5-(trifluoromethyl)-1,6-dihydropyridazin-4-yl)amino)cyclohexyl)methyl)isoquinolin-1(2H)-one]",8.21
20,"O=c1[nH]ncc(N[C@H]2CCC[C@@H](Cn3cc(F)c4cc(-c5ncc(C(F)(F)F)cn5)c(F)c(F)c4c3=O)C2)c1C(F)(F)F [Example 33, 4,7,8-trifluoro-2-(((1R,3S)-3-((6-oxo-5-(trifluoromethyl)-1,6-dihydropyridazin-4-yl)amino)cyclohexyl)methyl)-6-(5-(trifluoromethyl)pyrimidin-2-yl)isoquinolin-1(2H)-one]",8.82
